# Read-outs that look alike come from different tables or passages of the source.
# Columns and labels:
# [1] = system: MRPs, organic anion transporters; conditions: cited from earlier work
# Ent1 = conditions: mice; ref Lepist et al., 2008; cited from earlier work
# Mrp2 = conditions: ref Potschka et al., 2003; cited from earlier work
# [2] = ref Heideman et al., 1986; cited from earlier work
# rOAT3 = conditions: inhibition of rOAT3-mediated 6-mercaptopurine transport; ref Mori et al., 2004; cited from earlier work
# [3] = cited from earlier work
# P-gp [4] = conditions: 150 mg, iv; ref Kurnik et al., 2008; cited from earlier work
# [5] = highest dose; ref Bankstahl et al., 2008; cited from earlier work
# [6] = mice, 50 mg/kg, PO; ref Hubensack et al., 2008; cited from earlier work
# [7] = mouse, in vivo; cited from earlier work
# P-gp [8] = system: P-gp; parameters: species or system human; conditions: at 5.6 μM cyclosporine blood concentration
# P-gp [9] = conditions: cited from earlier work
# P-gp [10] = conditions: ref Passchier et al., 2003; cited from earlier work
# P-gp [11] = conditions: rhesus monkey, 8 mg/kg; ref Zoghbi et al., 2008; cited from earlier work
# hPXR = conditions: ref Bauer et al., 2006, cited from earlier work
# Bcrp [12] = conditions: cited from earlier work
# P-gp [13] = conditions: ref de Vries et al., 2007; cited from earlier work
# P-gp [14] = conditions: AUC, cited from earlier work
# Bcrp [15] = conditions: ref de Vries et al., 2007; cited from earlier work
# P-gp and BCRP = conditions: ref de Vries et al., 2007; cited from earlier work
# [16] = intraventricularly injected, ref Bode et al., 1980
# [17] = Elacridar (50 and 100 mg/kg, PO), ref de Vries et al., 2007
compound,measurement,setting,value
Sc1ncnc2nc[nH]c12 [6-mercaptopurine],Increase of brain-to-plasma concentration ratio with probenecid in rats,"[1]; ref Deguchi et al., 2000",up to 4.4 fold
OC[C@H]1O[C@@H](n2cnc3c(N[C@@H]4CCOC4)ncnc32)[C@H](O)[C@@H]1O [tecadenoson],Decrease in brain AUC with nitrobenzyl-mercaptopurine ribonucleoside,Ent1,2.5 fold
O=C1NC(=O)C(c2ccccc2)(c2ccccc2)N1 [Phenytoin],Extracellular concentrations and anticonvulsant activity vs. rats that do not lack Mrp2,Mrp2,two-fold greater
same,Enhancement of brain penetration and anticonvulsant activity by probenecid,"[1]; ref Potschka et al., 2003",up to two-fold
CN(Cc1cnc2nc(N)nc(N)c2n1)c1ccc(C(=O)N[C@@H](CCC(=O)O)C(=O)O)cc1 [Methotrexate],CNS distribution in untreated subjects (ventricular CSF / plasma AUC ratio),[2],0.02 (ventricular CSF / plasma AUC ratio)
same,Ki relative to estimated brain concentration in patients receiving chemotherapy,rOAT3,17.5 fold
same,Increase of CSF concentrations by probenecid,"[3]; 4 patients, ref Howell et al., 1979",2.8 to 4.2 fold
same,Effect of probenecid 1250 mg/m^2 daily on efflux kinetics,[3]; [16],did not change
same,Extension of terminal half life (CSF) by probenecid 2500 mg/m^2,[3]; [16],up to 53%
same,CSF concentrations with vincristine vs. monotherapy,"[3]; patient with lymphoma, ref Tejada & Zubrod, 1979",2.5 fold
same,Effect of vindesine on CSF concentration,"[3]; ref Tubiana et al., 1985",did not affect
COc1cc2c(cc1OC)CN(CCc1ccc(NC(=O)c3cc(OC)c(OC)cc3NC(=O)c3cnc4ccccc4c3)cc1)CC2 [Tariquidar],Inhibition of lymphocyte P-gp activity,P-gp [4],completely inhibited
same,Tariquidar blood concentration,[5],1402 ng/mL
same,Tariquidar brain concentration,[5],4131 ng/mL
same,Inhibitor concentration (brain),[6],3-9 nmol/g (brain) (∼2-fold greater in plasma)
CCC1(c2ccccc2)C(=O)NC(=O)NC1=O [Phenobarbital],"Brain uptake ratio in WT, untreated mice",[7],∼ 0.27-0.4
CN([11CH3])C(=O)C(CCN1CCC(O)(c2ccc(Cl)cc2)CC1)(c1ccccc1)c1ccccc1 [[^11C]-Loperamide],Predicted increase in CNS distribution in humans,P-gp [8],56-412%
same,Increase in distribution of radioactivity at the human BBB on P-gp inhibition,P-gp [9]; data obtained so far,~100%
same,Increase of brain [^11C]-loperamide with cyclosporine in humans,"P-gp [9]; intravenous infusion 10 mg/kg/2 hr, ref Passchier et al., 2008",~110%
same,Increase in brain radioactivity with cyclosporine in pigs,P-gp [10],up to 7 fold
same,Increase in plasma radioactivity with DCPQ,P-gp [11],16%
CCC(=O)C(CC(C)N(C)C)(c1ccccc1)c1ccccc1 (centres unmarked) [methadone],Decrease of antinociceptive effect after rifampin,"hPXR; hPXR transgenic mice, vs. vehicle",70%
CO[C@H]1/C=C/O[C@@]2(C)Oc3c(C)c(O)c4c(O)c(c(/C=N/N5CCN(C)CC5)c(O)c4c3C2=O)NC(=O)/C(C)=C\C=C\[C@H](C)[C@H](O)[C@@H](C)[C@@H](O)[C@@H](C)[C@H](OC(C)=O)[C@@H]1C [Rifampin],Predicted average steady state unbound plasma concentration,"hPXR; 50 mg/kg, oral, for 3 days",0.34 µg/mL
CC[C@@]1(O)C(=O)OCc2c1cc1n(c2=O)Cc2cc3c(CN(C)C)c(O)ccc3nc2-1 [Topotecan],Increase of oral bioavailability with elacridar in Mdr1a/b-/- mice,"Bcrp [12]; ref Jonker et al., 2000",more than 6 fold
same,Increase of placental transfer with elacridar in Mdr1a/b-/- mice,"Bcrp [12]; ref Jonker et al., 2000",> 2 fold
same,Increase of brain distribution with elacridar in Mdr1a/b-/- mice,"Bcrp [12]; ref de Vries et al., 2007",1.6 fold
same,Brain-to-plasma AUC ratio in Mdr1a/b-/- mice compared to WT controls,P-gp [13],two times higher
same,Fold change in brain uptake ratio in inhibitor-treated vs. control mice,P-gp [14]; [17],1.6 fold
same,Fold change in brain uptake ratio in inhibitor-treated vs. control mice (value corrected for drug in vasculature),P-gp [14]; [17],1.7 fold
same,Fold change in brain uptake ratio in inhibitor-treated vs. control mice,"P-gp [14]; Gefitinib (200 mg/kg, PO), microdialysis, ref Zhuang et al., 2006","1.7 ^b, AUC fold"
same,Brain-to-plasma AUC ratio in Bcrp-/- mice compared to WT controls,Bcrp [15],not different
same,Increase of brain-to-plasma AUC ratio in Mdr1a/b-/-/Bcrp-/- mice,P-gp and BCRP,3.2 fold

# — article PMC2751796 (Pharmacology & therapeutics, 2009)
